Values quoted from earlier work in US20220362242A1, “METHODS AND COMPOSITIONS FOR TREATING MOVEMENT DISORDERS” (Edgewise Therapeutics, Inc., priority 2018, published 2022).

Tested on: embryos from zebrafish model of DMD
Settings: control vs BTS treated muscles, FIG. 2

Cc1ccc(S(=O)(=O)NCc2ccccc2)cc1 [BTS, N-benzyl-p-tolyl-sulfonamide]
protection of muscles from pathological muscle derangement: protect muscles from pathological muscle derangement
